Consider 109 molecules from a melting point compilation (Tetko et al.).

Broadly, the melting point is the temperature of the solid-liquid transition.

With `OCc1cc(Cl)cc(Cl)c1O`, the melting point lay in the range of 82 to 83 °C. For `O=C(c1ccccc1)c1c(-c2ccccc2)n(C(=O)c2ccccc2)c2cc([N+](=O)[O-])ccc12`, the melting point amounted to 204 °C.

Turning to `CCCCCCCCC=CCCCCCCCCOC(=O)OC1CCC2(C)C(=CCC3C2CCC2(C)C(C(C)CCCC(C)C)CCC32)C1` (centres undefined), the melting point stood at 20 °C. Regarding `O=[N+]([O-])c1ccc(-c2nnc(NC3=NCCN3)s2)cc1`, the melting point was 239 to 241 °C. The figure for `CCC(C)C(N)CO` (centres undefined) is 36 to 39 °C. Then `O=Cc1ccc2nonc2c1`, with 58 °C. Consider `FC(F)(F)N1C(F)(F)C(F)(F)OC(F)(F)C1(F)F`, for which the melting point was -80 °C.

`O=C(CCl)NCc1ccc2c(c1)OCO2` had a melting point of 91.4 to 93.8 °C. Then `O=C(CBr)c1cccc(F)c1`, with 34 to 35 °C.

On to `N#CC1=C(N)Oc2c(c(C(F)(F)F)nn2-c2ccccc2)C1c1c(Cl)cc(Cl)cc1Cl` (centres undefined), for which the melting point came out at 207 °C. Then `COCCCN`, with -65 °C; and `CCCCCOC(=O)CCC(=O)OCCCCC`, with -10.8 °C; and `COc1ccc(C(=O)CC(=O)c2ccc(C(C)(C)C)cc2)cc1`, with 83.5 °C. Then `OCC12CC3CC(CC(C3)C1)C2`, with 140 °C; and `C=C(C)C1(O)C2OC(=O)C1C1(O)C3OC3C3(CO3)C1(C)C2O` (centres undefined), with 225 °C; and `CCCCCCCCCCCCCCCCCC[Si](C)(C)Cl`, with 30 °C. Then `COC(=O)c1cc(Br)cc(Br)c1N`, with 88 °C; and `CC1C(=CC(=O)OCCN(C)C)CCC2C1C(=O)CC1C(C)(C)C(O)CCC21C` (centres undefined), with 142 °C. With `CC(O)CO` (centres undefined), the melting point was -60 °C. As to `CC(CC1CC(=O)c2c3c(c4ccccc4c2O1)O[C@@H]1CC(=O)O[C@H]31)O[Si](C)(C)C(C)(C)C` (some centres undefined), the melting point is 131 to 133 °C. Then `CC(=O)c1sc2ccccc2c1C`, with 78 °C; and `CC(C)(C)OC(=O)NCc1ncccc1F`, with 56 to 58 °C.

In turn, `CC(=O)Oc1cc(C(F)(F)F)ccc1C(=O)O` registered a melting point of 121 °C. Then `Cc1cc(Cl)cc(Cl)c1S(N)(=O)=O`, with 168 to 170 °C. Then `Nc1ccc(Sc2cc(Cl)ccc2Cl)nc1`, with 108 to 109 °C; and `ClCc1nc2ccccc2[nH]1`, with 146 to 150 °C; and `C=C1C(=O)C23C4CC5C(C)(C)CCCC56COC(CC1C2OC(C)(C)O4)C63` (centres undefined), with 163 °C.

Regarding `CSC(=NS(=O)(=O)c1ccc(C)cc1)SC`, the melting point lay within 109 to 110 °C. Then `c1ccc(C(OC[C@H]2CO2)(c2ccccc2)c2ccccc2)cc1`, with 98 to 101 °C. The figure for `CCCCc1cc(C)ccc1O` is 19 °C; for `CC(O)CC(C)O` (centres undefined) it is 50 to 52 °C. The figure for `COc1ccc(C(O)C(=O)O)cc1O` (racemic) is 125 to 132 °C. `Oc1c(Cl)cc(Cl)c2ccccc12` displayed a melting point of 108 °C. The figure for `COC(=O)c1sc(SC)c(S(=O)(=O)C(C)C)c1Cl` is 141 to 144 °C; for `Cc1ccc2ccccc2c1N` it is 32 °C; for `Nc1ncnc2c1ncn2C1OC(CO)CC1O` (centres undefined) it is 226 °C.

Take `O=C(O)CCCCCO`: the melting point is 38 to 40 °C. The figure for `O=C(O)C1c2ccccc2C(=O)N(Cc2ccc(F)cc2)C1c1cccnc1` (centres undefined) is 250 °C. The molecule `NC(CO)C(=O)O` (racemic) registered a melting point of 240 °C. Take `Cl/C(=C\c1ccccc1)c1ccc2c3c(cccc13)CC2`: the melting point was found to be 77 °C. The figure for `COc1ccc(C(F)(F)F)cc1C(=O)O` is 110 °C; for `CSc1ncnc2c1ncn2C1OC(CO)C(O)C1O` (centres undefined) it is 164 °C.

As to `COc1ccc(C2c3cc(OC)c(OC)cc3CCN2C(C)=O)cc1` (centres undefined), the melting point fell in the range of 105 to 107 °C. The figure for `CCCCCCCCCCCCCCCCCCOP1OCC2(CO1)COP(OCCCCCCCCCCCCCCCCCC)OC2` (centres undefined) is 41.5 °C; for `NCCCO` it is 11 °C. Then `CC(C)=NNC(=O)c1cc(C)on1`, with 244 to 246 °C.

Regarding `NC(=S)c1ccc2c(c1)CCO2`, the melting point lay in the range of 145 to 155 °C.

As to `O=C1c2ccccc2C(=O)N1c1n[nH]c2ccccc12`, the melting point is 239 to 241 °C. Then `Cc1cc(-c2ccccc2)nc2cc3nc(-c4ccccc4)cc(C)c3cc12`, with 284 to 285 °C; and `COC1=C(O)C(=O)C(C)=C(O)C1=O`, with 202 °C; and `C/C=C/c1ccc(O)c(OC)c1`, with 33.5 °C. The figure for `CCOC(=O)C=CN(C)C` is 17.5 °C. The figure for `O=Cc1ccc(N2CCCC2=O)cc1` is 121 to 122 °C; for `CC1CCC(C(C)C)C(OC(=O)C(Cc2ccccc2)Cc2ccccc2)C1` (centres undefined) it is 43 °C; for `NNC(=O)c1ccc(Cl)c(Br)c1` it is 165 to 168 °C. With `CCc1nc2ccccc2[nH]1`, the melting point is 175 °C. Then `CNc1ccccc1`, with -57 °C. Then `O=C1C=C(NCCc2ccccn2)C(=O)c2ccccc21`, with 128 to 129 °C; and `CC(C)Nc1nc(N)nc(Cl)n1`, with 133 °C; and `CCOC(OCC)C(N)=S`, with 91 to 94 °C.

`COc1cc2c(c(Oc3c(OC)cc4c(c3O)C(CC(C)C)N(C)CC4)c1O)C(CC(C)C)N(C)CC2` (centres undefined) yielded a melting point of 164 °C.

The molecule `CCCCCCCCC=CCCCCCCCC(=O)Nc1ccccc1` registered a melting point of 41 °C. The figure for `Cc1c(C)c2c3ccccc3ccc2c2ccccc12` is 129 °C; for `CCOC(=O)C=Cc1ccc(C=CC(=O)OCC)c(N)c1` it is 178 °C.

`COc1ccc(OC)c(CCl)c1` had a melting point of 69 to 71 °C.

`CC12CCC3c4ccc(OC(=O)c5ccccc5)cc4CCC3C1CCC2O` (centres undefined) registered a melting point of 196 °C. The figure for `Cc1cc(Br)ncc1Br` is 38 °C. `O=C1OC(CO)C(O)C(O)C1O` (centres undefined) yielded a melting point of 151 to 155 °C. The figure for `CCn1c(C)nc([N+](=O)[O-])c1I` is 210 to 212 °C; for `O=Cc1cccn1S(=O)(=O)c1ccccc1` it is 76 to 77 °C. The figure for `O=P(c1ccccc1)(c1ccccc1)C1C=C(c2ccccc2)C=C(c2ccccc2)O1` (centres undefined) is 151 to 152 °C. Then `Cc1ccc(C(C)(Cl)C(=O)O)cc1` (centres undefined), with 112 °C; and `O=C(CCc1ccccc1)/C(=N\O)c1ccccc1`, with 129 to 130 °C; and `O=C(C=Cc1ccc(-c2ccccc2)o1)c1ccco1`, with 99 to 101 °C. On to `N#CC1=C(N)Oc2c(c(C(F)(F)F)nn2-c2ccccc2)C1c1ccc(Cl)cc1Cl` (centres undefined), for which the melting point was found to be 210 °C. The figure for `N#CC1(c2ccccc2)Cc2ccccc2C(=O)O1` (centres undefined) is 141 °C; for `CC1OC(=O)C(C)OC1=O` (racemic) it is 124 °C. In turn, `O=C1Nc2c(C(=O)O)cccc2C1=O` yielded a melting point of 268 to 275 °C. Molecule `N#Cc1ccc(F)cc1F` gave a melting point of 46 °C. Then `CN(C(=O)Cl)c1ccccc1`, with 88.5 °C; and `OCC(F)(F)C(F)(F)C(F)(F)C(F)(F)C(F)(F)C(F)(F)C(F)(F)C(F)(F)C(F)(F)F`, with 87 to 91 °C; and `COC(=O)COc1ccc(Cl)cc1Cl`, with 119 °C. On to `O=C(c1ccc2c3c(cccc13)CC2)C(Br)c1ccccc1` (centres undefined), for which the melting point is 118 °C. Regarding `OC[C@H]1O[C@@H](Oc2ccccc2)[C@H](O)[C@@H](O)[C@@H]1O`, the melting point was determined as 177 °C.

Regarding `CCSC(SCC)=C1CCCC(=C(SCC)SCC)C1=C(C#N)C#N`, the melting point fell in the range of 100 to 102 °C.

The molecule `CCOC(=O)c1cncc(Br)c1` returned a melting point of 41 °C. Regarding `CSC(C)=NOC(=O)N(C)SN(C)C(=O)ON=C(C)SC`, the melting point was 173 °C.

Regarding `Cc1ccccc1/C=C(\C#N)c1nc2ccccc2s1`, the melting point turned out to be 148 °C. Molecule `CCOC(=O)c1cnn(-c2ccc(F)cc2)c1N` showed a melting point of 153 to 154 °C. The figure for `O=C(Cl)c1cccnc1Sc1ccc(Cl)cc1` is 100 to 103 °C; for `OCCNC(=S)C(=S)NCCO` it is 93.3 °C; for `CC(C)(C)OC(=O)N[C@@H](C=O)Cc1ccccc1` it is 85 to 89 °C. Then `Cc1nnsc1-c1onc(C)c1C(=O)Cl`, with 66 to 70 °C. In the case of `c1ccc(CCCc2ccccc2)cc1`, the melting point was 6 °C. The figure for `CC(=O)Nc1cc([N+](=O)[O-])ccc1Nc1ccc(C)cc1` is 176 °C. The figure for `CC(C)(C)OC(=O)NC(Cc1cccc(F)c1)C(=O)O` (centres undefined) is 78 °C; for `Cc1cc(C(=O)NNCc2ccccc2)no1` it is 106 °C. Then `CCCCCCCCCCCCCCCC(=O)OC(=O)CCCCCCCCCCCCCCC`, with 64 °C; and `N#CC(CCc1ccc(Cl)cc1)(Cn1cncn1)c1ccccc1` (centres undefined), with 126 °C; and `C[C@H](OC(=O)Nc1ccccc1)C(=O)O`, with 137 to 142 °C. Turning to `CC1=NN(c2ccccc2)C(=O)/C1=N\Nc1ccc(C(=O)O)cc1`, the melting point was found to be 313 °C. Then `NNc1nccc(C(F)(F)F)n1`, with 100 to 101 °C; and `ClC[Si]12OCCN(CCO1)CCO2`, with 221 °C; and `O=[N+]([O-])c1cc([N+](=O)[O-])c(/C=C/c2cccc3c2OCO3)cc1/C=C/c1cccc2c1OCO2`, with 215 °C. Then `Cc1ccccc1NCCNc1ccccc1C`, with 72 °C; and `O=C(O)C=Cc1ccc(O)cc1`, with 214 °C. The figure for `O=C1C(=Cc2ccccc2)CCCC1=Cc1ccccc1` is 118 °C; for `CCCCCCCCCCc1ccc(NC(=O)c2ccc(C)cc2)cc1` it is 114 °C. `O=C(c1ccccc1)N1CCNCC1` displayed a melting point of 63 to 64 °C.
